doi:10.1101/2024.06.13.594677v1 (biorxiv, 2024)

The molecules below were run against T1, human 5-HT2A receptor (Homo sapiens, UniProt P28223) (assay: not given). Conditions: agonist.
Design: species or system SH-SY5Y expressing human 5-HT2A

T1 sequence (P28223 whole entry): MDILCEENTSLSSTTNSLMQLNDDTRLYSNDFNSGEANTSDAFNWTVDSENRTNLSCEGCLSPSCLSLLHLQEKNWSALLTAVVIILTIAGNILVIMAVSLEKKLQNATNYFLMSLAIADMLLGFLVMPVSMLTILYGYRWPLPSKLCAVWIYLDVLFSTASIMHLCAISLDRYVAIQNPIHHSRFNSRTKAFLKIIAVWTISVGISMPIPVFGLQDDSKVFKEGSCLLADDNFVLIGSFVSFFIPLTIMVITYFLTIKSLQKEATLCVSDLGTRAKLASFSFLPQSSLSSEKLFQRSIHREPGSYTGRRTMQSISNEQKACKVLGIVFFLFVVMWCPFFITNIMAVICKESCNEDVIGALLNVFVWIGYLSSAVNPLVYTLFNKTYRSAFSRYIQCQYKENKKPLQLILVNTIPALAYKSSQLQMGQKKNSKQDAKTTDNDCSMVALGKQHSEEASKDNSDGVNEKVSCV

| SMILES | Ca2+ Emax |
| --- | --- |
| COc1ccc2[nH]cc(CCN(C)C)c2c1 [5-MeO-DMT, 5-methoxy-N,N-dimethyltryptamine] | 0.73 ± 0.033 |
| COc1cc(CCNCc2ccccc2OC)c(OC)cc1Br [25B-NBOMe] | 0.57 ± 0.021 |
| COc1cc(CC(C)N)c(OC)cc1I (stereo not shown) [DOI, 2,5-dimethoxy-4-iodoamphetamine] | 0.49 ± 0.019 |
| CCN(CC)C(=O)[C@@H]1C=C2c3cccc4[nH]cc(c34)C[C@H]2N(C)C1 [LSD] | 0.36 ± 0.027 |
| COc1cc(CCN)cc(OC)c1OC [Mescaline, 3,4,5-trimethoxyphenethylamine] | 0.47 ± 0.031 |
| COc1ccc2c3c([nH]c2c1)CCN(C)CC3 [TBG] | 0.13 ± 0.033 |
| CN(C)CCc1c[nH]c2cccc(O)c12 [psilocin] | 0.40 ± 0.019 |

Each molecule was assayed against T1, human 5-HT2A receptor (assay: not given). Conditions: beta-arrestin2 agonism; GRK2 and GRK3 co-expressed; DPBS with Ca2+; […] min.
Type: cell-based

| SMILES | pEC50 |
| --- | --- |
| COc1cc(CCNCc2ccccc2OC)c(OC)cc1Br [25B-NBOMe, 4-bromo-2,5-dimethoxy-N-(2-methoxybenzyl)phenethylamine] | 8.20 ± 0.079 |

These molecules were tested against T1, human 5-HT2A receptor (assay: not given). Conditions: Gq/IP1 agonism; LiCl; […] °C, […] h.
Type: cell-based

| SMILES | pEC50 |
| --- | --- |
| COc1cc(CCNCc2ccccc2OC)c(OC)cc1Br [25B-NBOMe, 4-bromo-2,5-dimethoxy-N-(2-methoxybenzyl)phenethylamine] | 8.95 ± 0.28 |

These molecules were tested against T2, rat 5-HT2A receptor (Rattus norvegicus, UniProt P14842) (assay: not given). Conditions: relative to 10 uM 5-HT; agonist.
Design: species or system C6 glioma (endogenous rat 5-HT2A)

T2 sequence (P14842 whole entry): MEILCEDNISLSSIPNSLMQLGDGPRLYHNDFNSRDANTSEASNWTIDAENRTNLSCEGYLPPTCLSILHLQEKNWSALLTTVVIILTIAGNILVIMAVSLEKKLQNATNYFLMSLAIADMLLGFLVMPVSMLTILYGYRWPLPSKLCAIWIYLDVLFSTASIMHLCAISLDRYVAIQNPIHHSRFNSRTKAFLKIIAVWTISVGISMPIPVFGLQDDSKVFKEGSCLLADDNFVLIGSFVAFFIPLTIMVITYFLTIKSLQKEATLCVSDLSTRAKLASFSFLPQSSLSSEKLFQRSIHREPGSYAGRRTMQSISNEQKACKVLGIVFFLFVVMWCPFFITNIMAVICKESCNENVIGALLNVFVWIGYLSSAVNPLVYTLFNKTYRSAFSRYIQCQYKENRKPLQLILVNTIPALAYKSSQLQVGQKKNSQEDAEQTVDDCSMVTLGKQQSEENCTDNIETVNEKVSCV

| SMILES | Ca2+ Emax (C6) [%] |
| --- | --- |
| COc1ccc2[nH]cc(CCN(C)C)c2c1 [5-MeO-DMT, 5-methoxy-N,N-dimethyltryptamine] | 0.36 ± 0.021 |
| COc1cc(CCNCc2ccccc2OC)c(OC)cc1Br [25B-NBOMe] | 0.46 ± 0.027 |
| COc1cc(CC(C)N)c(OC)cc1I (stereo not shown) [DOI, 2,5-dimethoxy-4-iodoamphetamine] | 0.32 ± 0.017 |
| CCN(CC)C(=O)[C@@H]1C=C2c3cccc4[nH]cc(c34)C[C@H]2N(C)C1 [LSD] | 0.19 ± 0.0092 |
| COc1cc(CCN)cc(OC)c1OC [Mescaline, 3,4,5-trimethoxyphenethylamine] | 0.40 ± 0.025 |
| CN(C)CCc1c[nH]c2cccc(O)c12 [psilocin] | 0.12 ± 0.0079 |

The molecules below were run against T1, human 5-HT2A receptor (assay: not given). Conditions: Gq/Ca2+ agonism; room temperature; HBSS with Ca2+.
Type: cell-based

| SMILES | pEC50 |
| --- | --- |
| COc1cc(CCNCc2ccccc2OC)c(OC)cc1Br [25B-NBOMe, 4-bromo-2,5-dimethoxy-N-(2-methoxybenzyl)phenethylamine] | 7.84 ± 0.15 |

The molecules below were run against T2, rat 5-HT2A receptor (assay: cytosolic Ca2+). Conditions: Gq/Ca2+ agonism; room temperature; HBSS with Ca2+.
Type: cell-based

| SMILES | pEC50 |
| --- | --- |
| COc1cc(CCNCc2ccccc2OC)c(OC)cc1Br [25B-NBOMe, 4-bromo-2,5-dimethoxy-N-(2-methoxybenzyl)phenethylamine] | 8.10 ± 0.23 |
| COc1cc(CC(C)N)c(OC)cc1I (stereo not shown) [DOI, 2,5-dimethoxy-4-iodoamphetamine] | 7.14 ± 0.16 |
| CN(C)CCc1c[nH]c2cccc(O)c12 [psilocin] | 7.15 ± 0.20 |

Target: T1, human 5-HT2A receptor
Test: not given
Design: species or system SH-SY5Y expressing human 5-HT2A
Conditions: agonist
Remark: another data set of the same source

| SMILES | β-arrestin2 Emax |
| --- | --- |
| COc1ccc2[nH]cc(CCN(C)C)c2c1 [5-MeO-DMT, 5-methoxy-N,N-dimethyltryptamine] | 0.70 ± 0.020 |
| COc1cc(CCNCc2ccccc2OC)c(OC)cc1Br [25B-NBOMe] | 0.88 ± 0.017 |
| COc1cc(CC(C)N)c(OC)cc1I (stereo not shown) [DOI, 2,5-dimethoxy-4-iodoamphetamine] | 0.73 ± 0.027 |
| COc1cc(CCN)cc(OC)c1OC [Mescaline, 3,4,5-trimethoxyphenethylamine] | 0.64 ± 0.059 |
| COc1ccc2c3c([nH]c2c1)CCN(C)CC3 [TBG] | 0.19 ± 0.026 |
| CN(C)CCc1c[nH]c2cccc(O)c12 [psilocin] | 0.28 ± 0.019 |

Each molecule was assayed against T2, rat 5-HT2A receptor (assay: not given). Conditions: not given.

| SMILES | EC50 [nM] |
| --- | --- |
| COc1ccc2[nH]cc(CCN(C)C)c2c1 [5-MeO-DMT, 5-methoxy-N,N-dimethyltryptamine] | 240 |
| COc1cc(CCN)cc(OC)c1OC [Mescaline, 3,4,5-trimethoxyphenethylamine] | 295 |

Target: T1, human 5-HT2A receptor
Test: not given
Design: species or system SH-SY5Y expressing human 5-HT2A
Conditions: agonist
Remark: another data set of the same source

| SMILES | IP1 Emax |
| --- | --- |
| COc1ccc2[nH]cc(CCN(C)C)c2c1 [5-MeO-DMT, 5-methoxy-N,N-dimethyltryptamine] | 0.93 ± 0.027 |
| COc1cc(CCNCc2ccccc2OC)c(OC)cc1Br [25B-NBOMe] | 0.75 ± 0.040 |
| COc1cc(CC(C)N)c(OC)cc1I (stereo not shown) [DOI, 2,5-dimethoxy-4-iodoamphetamine] | 1.12 ± 0.025 |
| CCN(CC)C(=O)[C@@H]1C=C2c3cccc4[nH]cc(c34)C[C@H]2N(C)C1 [LSD] | 0.78 ± 0.039 |
| COc1cc(CCN)cc(OC)c1OC [Mescaline, 3,4,5-trimethoxyphenethylamine] | 0.81 ± 0.050 |
| COc1ccc2c3c([nH]c2c1)CCN(C)CC3 [TBG] | 0.35 ± 0.064 |
| CN(C)CCc1c[nH]c2cccc(O)c12 [psilocin] | 0.80 ± 0.030 |
